Source: patent US20060058260A1, “Combination therapy with gemcitabine and zd6126” (priority 2002, published 2006)
Values joined by “and” are separate entries in the source; they are usually repeats but may differ in a detail not shown here. Equal entries are not always repeated. Structures can show the parent of a compound that is named as a salt.

Tests used:
L3.6pl cells = assay: Primary pancreatic tumour growth and metastases growing orthotopically in nude mice; format: in vivo; conditions: gemcitabine 100 mg/kg i.p. twice weekly, ZD6126 75 mg/kg i.p. daily 5 days per week; for Liver Met: animals with liver metastases / animals in group; for Liver Met / LN Met / Peritoneal Carcinosis / Tumour Weight Average ± std dev: 25 days after tumour cell injection; for LN Met: animals with lymph node metastases / animals in group; for Incidence Pancreas: animals with pancreatic tumours / animals in group, sacrificed 25 days after tumour cell injection; for Peritoneal Carcinosis: animals with peritoneal carcinosis / animals in group; for Tumour Weight Average ± std dev: primary pancreatic tumour weight
Protocol: (§1) Model to Investigate Effects of ZD6126 and Gemcitabine Therapy on Primary Pancreatic Tumour Growth and Metastases Growing Orthotopically in Nude Mice Nude mice (n=8 to 10 per group) were treated 9 days after injection of 1×10^6 L3.6pl cells into the pancreas, with gemcitabine alone (100 mg/kg by intraperitoneal injection (i.p.) twice weekly on treatment days 2, 5, 9, 12), ZD6126 alone (75 mg/kg i.p. daily for 5 days per week on treatment days 1-5 and 8-12), or a combination of both agents ie gemcitabine (100 mg/kg i.p. twice weekly) and ZD6126 (75 mg/kg i.p. daily for 5 days per week). Thus the combination group received ZD6126 on treatment days 1-5 and 8-12 and gemcitabine on treatment days 2 and 5 and 9 and 12. On the days where both agents were given, gemcitabine was dosed at least 1 hour before ZD6126. A control group of 10 mice received intraperitoneal injections of an equivalent volume of saline according to the same treatment schedule as the combination group. The animals were sacrificed 25 days after tumour cell injection. The incidence of pancreatic tumours, liver metastases, lymph node metastases and peritoneal carcinosis was evaluated. The primary pancreatic tumour weight was measured. All macroscopically enlarged lymph nodes and liver nodules were confirmed by histopathology (H&E staining).

[1] = Body weight in the orthotopic pancreatic tumour model in nude mice; format: in vivo; conditions: 25 days after tumour cell injection; gemcitabine 100 mg/kg i.p. twice weekly, ZD6126 75 mg/kg i.p. daily 5 days per week
Protocol: as §1, with “Nude” for “Model to Investigate Effects of ZD6126 and Gemcitabine Therapy on Primary Pancreatic Tumour Growth and Metastases Growing Orthotopically in Nude Mice Nude”, “injection.” for “injection. The incidence of pancreatic tumours, liver metastases, lymph node metastases and peritoneal carcinosis was evaluated. The primary pancreatic tumour weight was measured. All macroscopically enlarged lymph nodes and liver nodules were confirmed by histopathology (H&E staining).”

Structure (SMILES)	Liver Met (L3.6pl cells)	LN Met (L3.6pl cells)	Incidence Pancreas (L3.6pl cells)	Peritoneal Carcinosis (L3.6pl cells)	Tumour Weight Average ± std dev (L3.6pl cells)	Body Weight Average ± std dev [1]	Tumour Weight Average ± std dev (L3.6pl cells; listed as gemcitabine)
COc1cc2c(c(OC)c1OC)-c1ccc(OP(=O)(O)O)cc1[C@@H](NC(C)=O)CC2 [ZD6126, N-acetylcolchinol-O-phosphate]	1/8	2/8	8/8	0/8	541 mg and 541 ± 201 mg	18.5 ± 1.9 g	–
Nc1ccn([C@@H]2O[C@H](CO)[C@@H](O)C2(F)F)c(=O)n1 [Gemcitabine, 2′-deoxy-2′,2′-difluorocytidine monohydrochloride (β-isomer)]	2/10	10/10	10/10	1/10	687 ± 157 mg	19.1 ± 2.2 g	687 mg
